assay: gradient 5% acetonitrile 3 min, to 50% in 2 min, to 85% in 15 min, held 3 min, 100 µL/min; details: column: Zorbax Extend-C18 2.1 x 50 mm; eluents: water / acetonitrile, 0.1% formic acid
Summary of the method: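 Values are retention times taken from adduct peaks that software picked and an analyst inspected. The pure standards were run as mixtures of ~100 molecules on HPLC linked to a quadrupole time-of-flight mass spectrometer, in positive and negative ionization mode. A Zorbax Extend-C18 column (2.1 × 50 mm, 1.8 μm) was used at 100 μL/min with water and acetonitrile, each including 0.1% formic acid.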

Compound | RP-LC retention time
COCCN1C(=O)CCc2cc(NS(=O)(=O)c3cccc(F)c3)ccc21 | 748 s
CCOc1ccc(-c2nc(Cc3noc(-c4cccc(OC)c4)n3)c(C)o2)cc1 | 1220 s
COC(=O)c1nnn(-c2cc(C)ccc2OC)c1C(=O)OC | 862 s
CCc1noc(-c2ccc(-n3ncc(C(=O)N(C)C)c3C)nc2)n1 | 748 s
O=C(Nc1cccc(C(F)(F)F)c1)N1CCCC1c1nncn1C1CCCC1 (centres undefined) | 765 s
Cc1sc2cc(C(=O)NCCN3CCOCC3)[nH]c2c1CN1CCCCC1 | 551 s
COC(=O)CNC(=O)N1CCCCC1c1nc(CCOCC2CC2)no1 (centres undefined) | 711 s
Cc1cccc(OCC(=O)N(Cc2ccc(N(C)C)cc2)C2CCS(=O)(=O)C2)c1C (centres undefined) | 798 s
CC(C)(C)NC(=O)N1CCC(N2CC3(CCCCC3)C2c2ccncc2)CC1 (centres undefined) | 611 s
CC1=C(C(=O)OC(C)C)C(c2cc3c(cc2Br)OCO3)NC(=O)N1 (centres undefined) | 748 s
O=C(CCNc1c(-c2ccccc2)nc2cnccn12)NCc1ccccc1F | 698 s
Cc1cc(NC(=O)CN(C)c2nc3c(Cl)cccc3s2)no1 | 809 s
Cc1ccc(CN2CC(Oc3ccc(-c4noc(-c5ccncc5)n4)cc3)C2)o1 | 681 s
CCOC(=O)C1=C(CN(C)Cc2ccccc2)NC(=O)NC1c1cccs1 (centres undefined) | 642 s
CCN(CC)C(=O)c1ccc2c(c1)N(CC(=O)NCCN1CCN(C)CC1)C(=O)CO2 | 567 s
Cc1cc(Nc2ccc(C(=O)NC3CC3)cc2)n2nc(-c3cccnc3)nc2n1 | 612 s
CCOC(=O)c1ccc(NC(=O)Cn2c(=O)n(CC)c(=O)c3c2cc(C)n3C)cc1 | 771 s
COc1cccc(C2Cn3nnc(-c4nc(-c5ccccc5)no4)c3CO2)c1 (centres undefined) | 1130 s
COc1ccc2c(c1)C1(CCN(S(=O)(=O)c3cccc(C)c3)C1)C(=O)N2 (centres undefined) | 840 s

Compound | RP-LC retention time
CN(C1CCc2nn(C)c(=O)n2CC1)S(=O)(=O)c1cccc(C#N)c1 (centres undefined) | 667 s
COC(CNC(=O)c1cc(C)nn1-c1ccccc1)OC | 659 s
CCCn1cc(CCNS(=O)(=O)c2cccc(OC)c2)c2cccnc21 | 837 s
CCOC(=O)c1c(C)[nH]c(CCC(=O)NCCc2ccco2)c1C | 788 s
CCc1nc(OCC(=O)NCCCOC)c2c(-c3ccc(F)cc3)noc2n1 | 890 s
CCCCc1cc(=O)oc2cc(C)cc(OCC(=O)N3CCC4(O)CCCCC4C3)c12 (centres undefined) | 933 s
Cc1ccc(NS(=O)(=O)c2cc3n(c2)CCCNC3=O)cc1C | 658 s
COc1ccc(-n2ncc3c(=O)n(Cc4nc(-c5ccc(C(C)(C)C)cc5)no4)cnc32)cc1 | 1270 s
Cc1ccc(Nc2c(-c3ccc(N4CCOCC4)cc3)nc3c(C)cccn23)cc1 | 739 s
Cc1nnc(NC(=O)CN2CCc3nc(NC(=O)c4cnccn4)sc3C2)s1 | 546 s
CSc1nnc(-c2nn(C)c3c2CN(C(=O)c2ccccc2Cl)CC3)n1C | 710 s
Cc1ccc(NC(=O)CN(C)S(=O)(=O)c2cc(C(=O)N3CCC(C)CC3)n(C)c2)cc1Cl | 998 s
CC(=O)NCCc1csc(C2CCN(C(=O)C3CCCO3)CC2)n1 (centres undefined) | 581 s
CC(NC(=O)c1c(O)c2sccc2[nH]c1=O)c1ccncc1 (centres undefined) | 564 s
CC1CCN(c2nnc(-c3nc(C4CC4)no3)c3ccccc23)CC1 | 1140 s
CSc1ccc(CNC(=O)Cn2c(C)cc(-c3nnc(C4CC4)o3)c2C)cc1 | 816 s
CC1CCN(S(=O)(=O)c2nn(C)cc2C(=O)NCCc2cccs2)CC1 | 952 s
CC1=C(c2ccc(C)cc2)S(=O)(=O)N=C1N1CCCN(C(=O)CC(C)C)CC1 | 855 s
O=C(NC1CCCCC1N1C(=O)CSC1=O)c1ccc(=O)[nH]c1 (centres undefined) | 583 s

Compound | RP-LC retention time
CCNc1cc(N2CCCC(CCC(=O)NC3CCCC3)C2)ncn1 (centres undefined) | 646 s
COC(=O)c1cc2c(=O)n(-c3nc4ccc(OC)cc4s3)ccc2nc1C | 1160 s
CCCc1noc(-c2cccnc2-n2cnc(C(=O)Nc3cc(C)cc(C)c3)c2)n1 | 1040 s
Cc1nc(-c2csc(S(=O)(=O)N3CCCC(C(=O)NCc4ccc(F)cc4)C3)c2)no1 (centres undefined) | 892 s
CCN(CC)S(=O)(=O)c1ccc(C)c(-c2nnc(-c3ccc(F)cc3)o2)c1 | 1100 s
COc1ccc(OCc2nnc3sc(-c4ccc5ccccc5n4)nn23)cc1 | 1040 s
CCN(Cc1ccc(Cl)cc1)Cc1cc(=O)n2cc(C)ccc2n1 | 583 s
CCCc1noc(-c2ccc3nnc(CC(=O)Nc4ccc(C)cc4F)n3c2)n1 | 940 s
CCn1c(=O)c2c(cc(C)n2C)n(CC(=O)Nc2c(C)cccc2C)c1=O | 756 s
CCOC(=O)C1CCN(S(=O)(=O)c2cc3n(c2)CCCNC3=O)CC1 | 652 s
CCc1ccc(CNC(=O)c2ccc3[nH]c4c(c3c2)CN(C(C)=O)CC4)cc1 | 680 s
Cc1occc1C(=O)N1CCCn2ccnc2C1C(C)C (centres undefined) | 574 s
Cn1c(=O)oc2cc(-c3noc(CNC(=O)C(c4ccccc4)c4ccccc4)n3)ccc21 | 928 s
Cc1cc(NC(=O)Cn2cnc(-c3cccs3)cc2=O)no1 | 669 s
COCCc1nncn1C1CCN(S(=O)(=O)c2cccc(F)c2)CC1 | 696 s
O=c1ccc(-c2ccc3c(c2)OCO3)nn1CCc1nc(-c2ccc(F)cc2)no1 | 927 s
CSc1ccc(NC(=O)C2CCN(c3cncnc3N3CCOCC3)CC2)cc1 | 669 s
CCc1ccc(S(=O)(=O)N2CCCN(C)c3ccccc32)cc1 | 1100 s
O=C(Nc1cccc2ccc(-n3ccnc3)nc12)C1COc2ccccc2O1 (centres undefined) | 674 s

The remaining lines, values ahead:

RP-LC retention time | Compound
615 s | Cc1ccsc1CN1CC(Oc2ccccc2C(=O)NC2CC2)C1
828 s | O=C(O)c1ccc(N2CCOCC2)c(NC(=O)c2ccc(Br)cc2)c1
714 s | COc1ccccc1CNC(=O)C1CCN(Cc2cn(C)c3ccc(Cl)cc23)CC1
784 s | Cc1c(Cl)cccc1NC(=O)C1CCCN(c2ccc(-n3cccn3)nn2)C1 (centres undefined)
771 s | COc1ccccc1NC(=O)N1CCN(Cc2nc3cc(Cl)ccc3o2)CC1
683 s | O=C(CC1c2ncccc2C(=O)N1c1ccccc1)N1CCN(c2ccccn2)CC1 (centres undefined)
625 s | CCOC(=O)C1=C(CN2CCN(c3ccccn3)CC2)NC(=O)NC1c1ccc(F)cc1 (centres undefined)
665 s | O=C(Cc1ccccc1Br)NC1CCN(c2cc(-c3ccccc3)[nH]n2)C1 (centres undefined)
1150 s | COc1ccc(-c2nnc(-c3ccc(C)c(S(=O)(=O)N4CCCCCC4)c3)o2)cc1
859 s | CCOc1ccc(NC(=O)N2CCCC2c2nc(-c3ccccc3OC)no2)cc1 (centres undefined)
673 s | CCCn1c(CCNC(=O)c2cc(F)ccc2F)nc2cccnc21
843 s | COc1ccc(-c2c(C)noc2NC(C)=O)cc1S(=O)(=O)N1CCN(c2ccc(F)cc2)CC1
812 s | Cc1ccc(CC(=O)N2CCC3(CC2)NC(=O)c2cccc(Cl)c2N3)cc1
913 s | Cc1cc(C)cc(NC(=O)Cn2c(=O)nc(N3CCCC(C)C3)c3ccccc32)c1 (centres undefined)
1080 s | CCN1C(=O)C2(CCN(S(=O)(=O)c3ccc(OC)c(Cl)c3)CC2)c2ccccc21
754 s | Cc1nc(N2CCCC2)c2c(C(=O)NCCCc3ccccc3)c(C)oc2n1

RP-LC retention time | Compound
791 s | COc1cccc(CNC(=O)CCc2nc3c(C)cccc3c(=O)n2C)c1OC
734 s | Cc1ccc(C)c(NC(=O)Cn2c(C(C)C)nc3c(c2=O)CCN(Cc2ccccc2)C3)c1
784 s | CSc1ccccc1NC(=O)C(=O)NCC(c1ccc2c(c1)CCCN2C)N1CCCC1 (centres undefined)
816 s | COc1ccccc1CNC(=O)C1CCN(S(=O)(=O)c2ccc3c(c2)CCCC(=O)N3)CC1
884 s | O=C(Nc1cccc(Cl)c1)C1CCN(S(=O)(=O)c2cc(C(=O)N3CCCC3)cs2)CC1
852 s | O=C(c1cc(Cl)ccc1F)N1CCC2(CC1)NC(=O)N(Cc1ccc(F)cc1)C2=O
718 s | COc1cccc(NC(=O)N(Cc2nnc3n2CCCCC3)c2cccc(OC)c2)c1
656 s | Cc1ccc(S(=O)(=O)N2CCN(CCc3cn(C)c4ncccc34)CC2)cc1C
878 s | Cc1nc(-c2csc(S(=O)(=O)N3CCC(C(=O)Nc4ccccc4)CC3)c2)no1
886 s | Cc1oc(C2CCN(C(=O)Cc3c(F)cccc3Cl)CC2)nc1C(=O)N1CCCCC1
912 s | COc1ccc(Cl)cc1S(=O)(=O)NCc1c(-c2ccccc2)nc2sc(C)nn12
557 s | COc1ccccc1OCC(=O)NCC1(c2cccs2)CCCC1
1050 s | Clc1cccc(-c2nnc(-c3nc(NCc4ccco4)c4ccccc4n3)o2)c1
664 s | CCn1cnc2cc(-c3noc(C4CC(=O)N(c5ccccc5)C4)n3)ccc21 (centres undefined)
649 s | COc1ccc(C2CC(=O)c3cnn(-c4nc5ccccc5[nH]4)c3C2)c(OC)c1 (centres undefined)
569 s | COc1ccc(-c2csc3ncnc(NCCN4CCOCC4)c23)cc1
